Measurements reported in US5491135A (priority 1993, dated 1996).
Where “and” joins values, the source holds several entries; their conditions need not be identical. Equal entries are not always repeated. Entries after “also recorded” stand apart in the source; their conditions may differ. Where two headings read alike, the source gives them in different places.

Tests used:
[1] = system: HCMV strain AD 169; experiment: Rabbit HCMV efficacy and time course recovery (Example 6); conditions: for Chorioretinal score (C) / Vitreitis score (V): sham-inoculated S1-S5, dose as groups 1-5
[2] = system: clinical HCMV isolate; assay type: cell-based
[3] = system: HCMV strain AD 169; experiment: Rabbit HCMV ascending dose efficacy and time course recovery (Example 7); conditions: for Vitreo-retinal score: sum of both eyes
[4] = day 3, PALA 50, DHPG 10 or both, mg/kg/d
[5] = day 4, PALA 50, DHPG 10 or both, mg/kg/d
[6] = day 5, PALA 50, DHPG 10 or both, mg/kg/d
[7] = day 6, PALA 50, DHPG 10 or both, mg/kg/d
[8] = day 3, PALA 75 mg/kg/d, with or without steroid
[9] = day 3, PALA 50 or DHPG 10 mg/kg/d
[10] = day 4, PALA 75 mg/kg/d, with or without steroid

## O=C(O)C[C@H](NC(=O)CP(=O)(O)O)C(=O)O [PALA]
[1]; PALA 50, DHPG 10 or both, mg/kg/day i.v.
  HCMV recovery: better than recovery in placebo treated eyes
[1]; [4]
  HCMV Recovered, OD: +
  HCMV Recovered, OS: +
  HCMV Titer, OD: 10^4 pfu
  HCMV Titer, OS: 10^4 pfu
  HCMV recovery frequency: 2/2
[1]; day 3
  Chorioretinal score (C): 0
  Vitreitis score (V): 0
[1]; [5]
  HCMV Recovered, OD: +
  HCMV Recovered, OS: +
  HCMV Titer, OD: 10^3 pfu
  HCMV Titer, OS: 10^2 pfu
  HCMV recovery frequency: 2/2
[1]; day 4
  Chorioretinal score (C): 0
  Vitreitis score (V): 0
[1]; day 5, PALA 50 mg/kg/d
  HCMV Titer, OD: 10^1 pfu
  HCMV Titer, OS: 10^2 pfu
[1]; [6]
  HCMV Recovered, OD: +
  HCMV Recovered, OS: +
  HCMV recovery frequency: 2/2
[1]; day 5
  Chorioretinal score (C): 0
  Vitreitis score (V): 0
[1]; day 6, PALA 50 mg/kg/d
  HCMV Titer, OS: 10^1 pfu
[1]; [7]
  HCMV Recovered, OD: +
  HCMV Recovered, OS: +
  HCMV recovery frequency: 2/2
[1]; day 6, PALA 50 or DHPG 10 mg/kg/d
  HCMV Titer, OD: 10^1 pfu
[1]; day 6
  Chorioretinal score (C): 0
  Vitreitis score (V): 0
[1]; day 7
  Chorioretinal score (C): 0
  Vitreitis score (V): 0
[1]; day 10
  Chorioretinal score (C): 0
  Vitreitis score (V): 0
[1]; sham-inoculated S1, PALA 50 mg/kg/day
  vitreitis / chorioretinal disease: did not develop any vitreitis nor chorioretinal disease
[2]
  reduction of HCMV titer: effective in reducing the titer
[2]; Human betaherpesvirus 5, Hs68, read-out: viral yield reduction
  log reduction at 10 µg/mL: 2 to 3
[2]; day 0 PI
  Cell associated HCMV titer: 10^2 PFU/ml
  Cell free (supernatant) HCMV titer: 10^5 PFU/ml
[2]; day 1 PI
  Cell associated HCMV titer: 10^3 PFU/ml
  Cell free (supernatant) HCMV titer: 10^2 PFU/ml
[2]; day 2 PI
  Cell associated HCMV titer: 10^2 PFU/ml
  Cell free (supernatant) HCMV titer: 10^1 PFU/ml
[2]; day 3 PI
  Cell associated HCMV titer: 10^1 PFU/ml
  Cell free (supernatant) HCMV titer: 10^2 PFU/ml
[2]; day 4 PI
  Cell associated HCMV titer: 10^1 PFU/ml
  Cell free (supernatant) HCMV titer: 10^1 PFU/ml
[2]; day 5 PI
  Cell associated HCMV titer: 0 PFU/ml
  Cell free (supernatant) HCMV titer: 10^1 PFU/ml
[2]; day 6 PI
  Cell associated HCMV titer: 10^1 PFU/ml
[2]; day 7 PI
  Cell associated HCMV titer: 10^1 PFU/ml
[3]; PALA 75 mg/kg/day
  HCMV recovery vs placebo: comparable to placebo therapy
[3]; PALA 75 mg/kg/day i.v., with or without steroid
  clinical disease / efficacy: vitreitis increased through day 6 post inoculation; also recorded: not improved when compared to the 50 mg/kg/day PALA dose or to the 10 mg/kg/day DHPG dose
[3]; PALA 100 mg/kg/day
  HCMV recovery vs placebo: significantly higher than HCMV recovery in placebo treated animals
[3]; PALA 100 mg/kg/day i.v.
  clinical disease / efficacy: Both the vitreitis and optic nerve head disease severity were increased compared to other single-agent PALA, DHPG and placebo therapies; also recorded: not effective in reducing the clinical disease progression or HCMV recovery
  toxicity: toxic to the animals; also recorded: animal died prior
[3]; PALA 50 or DHPG 10 mg/kg/day i.v.
  clinical disease / efficacy: vitreitis increased through day 6 post inoculation; also recorded: optic nerve head pathology peaked on day 4 after inoculation and decreased to low levels
[3]; [8]
  HCMV Recovered, OD: +
  HCMV Recovered, OS: +
  HCMV Titer, OD: 10^5 pfu and 10^4 pfu
  HCMV Titer, OS: 10^4 pfu
  HCMV recovery frequency: 4/4
  Optic neuritis score (ONH): 2.0
  Vitreo-retinal score: 2.25 and 1.5
[3]; day 3, PALA 100 mg/kg/d
  Average HCMV titer: 10^4 pfu
  HCMV Recovered, OD: +
  HCMV Recovered, OS: +
  HCMV Titer, OD: 10^4 pfu
  HCMV Titer, OS: 10^3 pfu
  HCMV recovery frequency: 4/4
  Optic neuritis score (ONH): 2.0 and 3.0
  Vitreo-retinal score: 1.0 and 0.75
[3]; [9]
  HCMV Recovered, OD: +
  HCMV Recovered, OS: +
  HCMV Titer, OD: 10^3 pfu and 10^4 pfu
  HCMV Titer, OS: 10^4 pfu and 10^3 pfu
  HCMV recovery frequency: 4/4
  Optic neuritis score (ONH): 2.0
  Vitreo-retinal score: 1.0 and 1.5
[3]; [10]
  HCMV Recovered, OD: +
  HCMV Recovered, OS: + and -
  HCMV Titer, OD: 10^4 pfu
  HCMV Titer, OS: 10^3 pfu
  HCMV recovery frequency: 3/4
  Optic neuritis score (ONH): 4.0 and 5.0
  Vitreo-retinal score: 2.75 and 3.5
